Results from patent US20050187190A1, “Autoinducer-2 compounds as immunomodulatory agents” (priority 2004, published 2005).

Assays:
[1] = test system: IL-1 production in J774 macrophages; test: IL-1 production by stimulated J774 macrophages, ELISA of culture supernatants; format: cell-based, mouse; details: for release of IL-1: absence of exogenously-supplied immunostimulatory factors; for effect on IL-1 production: LPS-treated macrophages
Method: (§1) J774.1 macrophages were cultured in RPMI 1640 medium containing 15% fetal calf serum in a humidified 37° C. incubator supplied with 5% CO2. Cells were plated at 50% confluency in 96 well format and allowed to attach overnight. For immunostimulation experiments, cells were incubated overnight in 100 μl of the above medium containing sub-maximal stimulatory levels of inducers: 0.1 μg/mL Salmonella lipopolysaccharide (Sigma), 1 μg/mL lipoteichoic acid (Sigma) or sterile, cell-free bacterially conditioned medium at a final concentration of 10^7 cell equivalents/mL. Following incubation, the medium was removed, centrifuged, and stored at −20° C. for subsequent assay for the presence of released cytokines. Preparation of bacterially conditioned medium Pseudomonas aeruginosa strain PAO1 and Lux^+ or Lux^− strains of Salmonella typhimurium 14028 were cultured in Luria Broth overnight. The optical density of the cultures was measured at 600 nm and cell densities calculated through use of a MacFarland's standard. Bacterial cultures were centrifuged and supernatants were filtered through a 0.2 micron sterile filter to remove all bacteria.
(§2) Centrifuged macrophage culture supernatants were assayed for the presence of secreted IL-1 and IL-6 through use of an ELISA kit according to the manufacturer's directions (R&D Systems, Minneapolis, Minn.). Briefly, 10 μl of culture supernatants were bound to test wells precoated with either anti-IL-1 or anti-IL-6 immunoglobulin. Bound cytokine was detected through use of a secondary cytokine-specific antibody tagged with horseradish peroxidase. Assay samples were developed through use of stabilized tetramethylbenzidine and hydrogen peroxide. Cytokine level, directly proportional to the colorimetric signal, was quantitated by measuring sample absorbance at 450 nm.

[2] = test system: IL-6 production in J774 macrophages; test: IL-6 production by stimulated J774 macrophages, ELISA of culture supernatants; format: cell-based, mouse; details: for release of IL-6: absence of exogenously-supplied immunostimulatory factors; for production of IL-6: regardless of stimulus: viral ribopolymers, LPS or lipoteichoic acid; for effect on IL-6 production: LPS-treated macrophages
Method: as §1, §2

[3] = target: T1, recombinant COX-2 (Homo sapiens, UniProt P35354); test: Inhibition of recombinant COX-2 prostaglandin synthesis, ELISA for PGE2; format: biochemical
T1 sequence (P35354 18-604): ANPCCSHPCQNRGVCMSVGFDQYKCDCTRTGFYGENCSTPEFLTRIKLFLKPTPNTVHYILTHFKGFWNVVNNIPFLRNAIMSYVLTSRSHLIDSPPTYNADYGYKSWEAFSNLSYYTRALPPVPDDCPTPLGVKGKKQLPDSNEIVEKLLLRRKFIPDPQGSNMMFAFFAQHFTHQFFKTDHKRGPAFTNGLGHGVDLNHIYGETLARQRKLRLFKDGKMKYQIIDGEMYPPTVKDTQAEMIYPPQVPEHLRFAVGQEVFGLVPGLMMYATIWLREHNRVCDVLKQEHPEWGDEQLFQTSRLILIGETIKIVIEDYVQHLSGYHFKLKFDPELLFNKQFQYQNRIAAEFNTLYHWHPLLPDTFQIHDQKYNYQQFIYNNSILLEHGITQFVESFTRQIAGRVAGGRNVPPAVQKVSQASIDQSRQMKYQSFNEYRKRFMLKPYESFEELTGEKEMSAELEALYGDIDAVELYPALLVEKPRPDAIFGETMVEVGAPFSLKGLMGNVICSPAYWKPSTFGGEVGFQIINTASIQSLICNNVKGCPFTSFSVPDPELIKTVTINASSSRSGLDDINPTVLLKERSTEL
Method: “Max Inhibition” and “Aspirin/1000 uM” are positive inhibition controls. “Analog/500 uM,” represents the inhibition of prostaglandin synthesis by 500 μM MHF; “AI-2/40 uM” and “AI-2/80 uM” represents the inhibition of prostaglandin synthesis by 40 and 80 μM, respectively of AI-2. “Ribose/500 um” the inhibition of prostaglandin synthesis by 500 μM ribose. Prostaglandin synthesis was indirectly quantitated using an ELISA for PGE2 production.
Extracellular bacterial signals trigger expression of cyclooxygenase-2 (cox-2), which amplifies the cellular IL-6 response by catalyzing production of prostaglandin PGE2.
Aspirin, a non-specific inhibitor of COX-2 served as an inhibition control; prostaglandin synthesis was indirectly quantitated in an ELISA assay.

[4] = test system: nitric oxide production (iNOS activity) in J774 macrophages; test: Nitric oxide (nitrite) production by LPS-stimulated J774 macrophages; format: cell-based, mouse
Method: FIG. 10 is a bar graph showing that AI-2 treatment suppresses nitric oxide production by LPS-stimulated J774 macrophages. “LPS+34,” “LPS+AI-2(5 ul)” and LPS+AI-2(2 ul) represents inhibition by concurrent treatment with LPS and MHF or the indicated amounts of AI-2. “LPS+ribose” is a control to show the amount of nitric oxide production in the absence of an inhibitor.

[5] = test system: MM32; test: MM32 light production assay (quorum sensing activity); format: cell-based, Vibrio harveyi
From the text: Such agonists and analogs can be readily recognized by their action on the quorum-sensing system of bacteria such as mutant strains of Vibrio harveyi that respond to AI-2 but cannot produce it themselves. For example, AI-2 analogs and agonists can be identified by known techniques, including but not limited to, large-scale screening of compounds through use of the V. harveyi bioassay described in U.S. Pat. No. 6,780,890 and other techniques described therein. Reduction in signaling activity in the presence of a test compound indicates the ability of that compound to, for example, block bacterial pathogenesis by affecting the expression of one or more virulence factors.

[6] = LPS 0.1 μg/mL, concurrent AI-2 40 μM
[7] = LPS-stimulated macrophages, increasing amounts of enzymatically-prepared AI-2

CC(=O)C(=O)[C@@H](O)CO [AI-2]
reduction of overall concentration of IL-1 [1, 6]: approximately 50% | IL-1 production, dose dependence [1, 7]: increasing suppression | release of IL-1 [1]: neither AI-2 nor its biosynthesis co-products, adenine and homocysteine, cause macrophages to release IL-1 or IL-6 | reduction of overall concentration of IL-6 [2, 6]: approximately 50% | IL-6 production, dose dependence [2, 7]: increasing suppression | release of IL-6 [2]: neither AI-2 nor its biosynthesis co-products, adenine and homocysteine, cause macrophages to release IL-1 or IL-6 | reduction in IL-6 levels ([2]; macrophages stimulated with LPS (0.1 μg/ml), 5 μl of the AI-2 reaction product): ~50% | IC50 ([2]; read-out: IC50, inhibition of IL-6 production in macrophages): 40 µM | production of IL-6 [2]: decrease production of IL-6 | IC50 ([3]; read-out: IC50, prostaglandin level produced by recombinant COX-2): 40 µM | nitrite (breakdown product of nitric oxide) level [4]: near baseline levels

O=C1O[C@H]([C@@H](O)CO)C(O)=C1O [ascorbic acid, reference compound]
effect on IL-1 production [1]: affect neither IL-1 nor IL-6 production | effect on IL-6 production [2]: affect neither IL-1 nor IL-6 production

O=C[C@H](O)[C@H](O)[C@H](O)CO [ribose, reference compound]
effect on IL-1 production [1]: affect neither IL-1 nor IL-6 production | effect on IL-6 production [2]: affect neither IL-1 nor IL-6 production | production of IL-6 [2]: effects no attenuation | inhibition of PGE2 production ([3]; 500 μM ribose): inability of ribose (even at high concentrations, 500 μM) to inhibit PGE2 production | quorum-sensing activity ([5]; 50 μM ribose): lacks quorum-sensing activity

CC1=C(O)C(=O)CO1 [MHF, 5-methyl-4-hydroxy-3(2H)furanone]
IL-6 production ([2]; LPS-stimulated J774 macrophages): suppression of IL-6 production | IL-6 production ([2]; lipoteichoic acid-stimulated J774 macrophages): suppression of IL-6 production | production of IL-6 [2]: decrease production of IL-6 | reduction in IL-6 production ([2]; stimulated J774 macrophages, 500 μM MHF): 50% | concentration at which near maximal attenuation of IL-6 release occurs ([2]; stimulated J774 macrophages, little change at higher concentrations): 877 µM | concentration at which detectable attenuation of IL-6 release occurs ([2]; stimulated J774 macrophages, titration): 105 µM | IL-6 production ([2]; viral ribopolymer (polyCI)-stimulated J774 macrophages): suppression of IL-6 production | inhibition of Cox-2 prostaglandin synthetase activity ([3]; 500 μM MHF): inhibition of Cox-2 prostaglandin synthetase activity | nitrite (breakdown product of nitric oxide) level [4]: near baseline levels | quorum sensing activity [5]: displays quorum sensing activity | quorum-sensing activity ([5]; 500 μg/ml MHF): comparable to 2.5 μL enzymatically-synthesized AI-2

N[C@@H](CCS)C(=O)O [homocysteine, reference compound]
release of IL-1 [1]: neither AI-2 nor its biosynthesis co-products, adenine and homocysteine, cause macrophages to release IL-1 or IL-6 | release of IL-6 [2]: neither AI-2 nor its biosynthesis co-products, adenine and homocysteine, cause macrophages to release IL-1 or IL-6

Nc1ncnc2nc[nH]c12 [adenine, reference compound]
release of IL-1 [1]: neither AI-2 nor its biosynthesis co-products, adenine and homocysteine, cause macrophages to release IL-1 or IL-6 | release of IL-6 [2]: neither AI-2 nor its biosynthesis co-products, adenine and homocysteine, cause macrophages to release IL-1 or IL-6
